The subject of test [1] is BMP-2. Nature of the test: Endogenous BMP-2 mRNA expression in hPOB-tert cells by RT-PCR. The settings on record: 0.5 μg/ml, positive control. The class given is cell-based, human. How it is done: The plants found positive for BMP-2 induction in example 1 were further tested in a human periosteal/preosteoblast cell line, hPOB-tert for their ability to induce the endogenous expression of BMP-2. This test in osteoblast cells confirmed the results shown in example 1.
[…] Total RNA was extracted with TRIzol Reagent (Gibco). 10 μg RNA were reverse transcribed using the 1st Strand cDNA Synthesis Kit (Boehringer). BMP-2 cDNA sequences were amplified for 35 cycles at an annealing temperature of 55° C. using specific oligonucleotide primers (5′: […]; 3′: […]). PCR products were separated by agarose gel electrophoresis and detected by ethidium bromide staining. Quantification was performed using NIH Image Software and normalizing results with Actin as house-keeping gene.

Test [2] relates to BMP-2 promoter. The test is described as follows: BMP-2 luciferase assay (BMP-2 gene reporter assay, bone formation). The class given is cell-based. The settings on record: 10^−6M; result in words. Here is the method: BMP-2 luciferase assay—The activity of the extracts was determined using 2T3 cells containing the BMP-2 promoter operatively linked to the luciferase gene. An increase in luciferase activity in cell lysates reflects an increase in BMP-2 promoter activity. The extracts were assayed at an initial dilution of 100 μg/ml with ½ dilutions down to 0.2 μg/ml. BMP-2 promoter activity was measured by measuring the luciferase activity in cell extracts.

Consider `CC[C@H](C)C(=O)O[C@H]1C[C@@H](C)C=C2C=C[C@H](C)[C@H](CC[C@@H]3C[C@@H](O)CC(=O)O3)[C@H]21` [lovastatin], for which, in test [1], the “induction of BMP-2” value was determined as 2.5 fold.
With `O=c1c(-c2ccc(O)cc2)coc2cc(O)ccc12` [daidzein], the “stimulation of BMP-2 (promoter activity)” value in test [2] is “stimulated BMP-2”.
As for `O=c1c(-c2ccc(O)cc2)coc2cc(O)cc(O)c12` [genistein], in test [2], the “stimulation of BMP-2 (promoter activity)” value is “stimulated BMP-2”.

The values are drawn from patent US20050079232A1, “Composition for promotion of bone growth and maintenance of bone health” (priority 2001, published 2005).
